Key:
naïve human T-cells = experiment: Naïve T cell epitope map: ex vivo T-cell proliferation using PBMC from healthy donors; format: cell-based; details: cells of a healthy non haemophiliac individual
Source text: This approach has proven to be a particularly effective method and is disclosed herein as an embodiment of the invention. The method can be applied to test part of the sequence, for example a FVIII protein lacking all or part of the B-domain; the method can be applied to selected regions of the sequence, for example a sub-set of FVIII peptides such as all or some of those listed in FIG. 1; or the method may be applied to test whole FVIII sequence. In the present studies, the method has involved the testing of overlapping FVIII-derived peptide sequences in a scheme so as to scan and test a FVIII sequence lacking the B-domain. The synthetic peptides are tested for their ability to evoke a proliferative response in human T-cell cultured in vitro. […] The stimulation index is conventionally derived by division of the proliferation score (e.g. counts per minute of radioactivity if using ^3H-thymidine incorporation) measured to the test peptide by the score measured in cells not contacted with a test peptide.
Blood from 40 healthy HLA-DR typed donors was used to isolate PBMC which were used to screen individual FVIII peptides at two concentrations (1 and 5 μM). […] MHC allotypes were detected using
PBMC contain physiological numbers of naïve T cells and antigen presenting cells. […] Cultures were harvested onto filtermats and the cpm/well was determined using a Wallac Microplate Beta counter.

[1] = system: T-cells derived from haemophiliac patients; experiment: T-cell proliferation with FVIII specific T cell lines from haemophiliac patients; format: cell-based, human; details: T-cells from haemophiliac blood
Source text: In a further embodiment of this approach, the inventors have provided a method whereby the FVIII sequence is scanned for the presence and location of T-cell epitopes using ex vivo biological T-cell assays where the T-cells are derived from haemophiliac patients. For a proportion of such patients the FVIII protein constitutes a foreign protein and a potent antigen in vivo. The inventors have established that it is possible to derive polyclonal and in principle mononclonal T-cell lines in vitro from the PBMC of such individuals and these lines may be used as effective reagents in the mapping of T-cell epitopes within the FVIII protein. […]
In the present case in the synthetic peptides were analysed using a system of pools each containing 8 different peptide sequences. […] These cells are stimulated with antigen (e.g. synthetic peptide or whole protein) using most preferably autologous antigen presenting cells as previously for around 4 days and the subsequent proliferative response (if any) is measured thereafter. […] In this way any individual T-cell epitope is represented in 2 separate pools and induced proliferation will be detected from treatments using both of those pools. Where a proliferative response is detected to any given peptide pool, the peptide pool is decoded repeating the assay using the individual pool members in isolation. […]

Sequence	proliferation of ex vivo T-cells (naïve human T-cells)	proliferation of ex vivo T-cells [1]
ISQFIIMYSLDGKKW [Peptide P10]	able to evoke proliferation of ex vivo T-cells	able to evoke proliferation of ex vivo T-cells
IARYIRLHPTHYSIRSTLRM [Peptide P11]		active
